Laboratory results taken from ChEMBL document CHEMBL5150064 (J Med Chem, 2022).
Values after ≈ are worked out from the molar mass of the structure shown. Active and inactive are the calls of the source. The rule behind the calls is not given here.

How the values were obtained:
[1] = AUC in NCR nude mouse at 5 mg/kg, po measured upto 8 hrs by LC-MS/MS analysis; assay type: ADME, organism-based; set-up: time < 8 hrs, dose 5 mg/kg, route po; conditions: in vivo
Mus musculus [2] = assay: In vivo inhibition of PI3K in human HCC1954 cells xenografted in po dosed mouse; assay type: functional, organism-based; conditions: DDE = dose-dependent effect
Mus musculus [3] = assay: In vivo inhibition of PI3K in human HCC1954 cells xenografted in mouse at 50 mg/kg, po; assay type: functional, organism-based; conditions: TDE = time-dependent effect
[4] = Lipophilicity, logD of compound in 1-Octanol/PBS at pH 7.4 by LC-MS/MS method; assay type: physicochemical
Cytochrome P450 2C19 = Cytochrome P450 2C19 (Homo sapiens, UniProt P33261); assay: Inhibition of CYP2C19 (unknown origin); assay type: ADME
[5] = system: Phosphatidylinositol 4,5-bisphosphate 3-kinase catalytic subunit alpha isoform (Homo sapiens), P42336 [H1047R]; assay: Induction of P110alpha H1047R mutant degradation in human HCC1954 cells at 0.012 to 1 uM after 24 hrs; assay type: cell-based; conditions: dose 0.012-1 µM
HCC1954 [6] = assay: Antitumor activity against human HCC1954 cells xenografted in mouse assessed as tumor growth inhibition at 50 mg/kg, po QD; assay type: functional; conditions: read-out: TGI
[7] = Clearance in Sprague-Dawley rat plasma at 1 mg/kg, iv measured upto 8 hrs by LC-MS/MS analysis; assay type: ADME, organism-based
[8] = Plasma protein binding in human assessed as unbound fraction at 5 uM incubated for 4 hrs by equllibrium dialysis method; assay type: ADME, cell-free
[9] = Oral bioavailability in NCR nude mouse at 5 mg/kg measured upto 8 hrs by LC-MS/MS analysis; assay type: ADME, organism-based; conditions: in vivo
HCC1954 [10] = assay: Antitumor activity against human HCC1954 cells xenografted in mouse assessed as tumor growth inhibition at 25 mg/kg, po QD; assay type: functional; conditions: read-out: TGI
[11] = Inhibition of PI3KC2b (unknown origin); set-up: species or system Homo sapiens
[12] = Thermodynamic aqueous solubility of the compound at pH 2; assay type: physicochemical; conditions: read-out: Therm_solubility
Cytochrome P450 2C8 = target: T1, Cytochrome P450 2C8 (Homo sapiens, UniProt P10632); assay: Inhibition of CYP2C8 (unknown origin); assay type: ADME
T1 sequence (P10632 whole entry): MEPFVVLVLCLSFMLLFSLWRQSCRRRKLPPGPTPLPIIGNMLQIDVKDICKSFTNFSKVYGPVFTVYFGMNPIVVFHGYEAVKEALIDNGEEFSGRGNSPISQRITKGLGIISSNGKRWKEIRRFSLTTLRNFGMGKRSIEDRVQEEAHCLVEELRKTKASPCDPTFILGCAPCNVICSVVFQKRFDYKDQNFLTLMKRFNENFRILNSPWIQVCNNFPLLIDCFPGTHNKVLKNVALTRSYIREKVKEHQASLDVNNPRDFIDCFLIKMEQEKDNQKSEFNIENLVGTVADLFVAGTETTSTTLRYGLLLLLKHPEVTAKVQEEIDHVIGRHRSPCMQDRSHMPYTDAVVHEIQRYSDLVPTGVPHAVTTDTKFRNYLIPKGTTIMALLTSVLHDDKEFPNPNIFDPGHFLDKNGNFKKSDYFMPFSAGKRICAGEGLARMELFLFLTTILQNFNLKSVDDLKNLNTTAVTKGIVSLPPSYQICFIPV

Mus musculus [13] = assay: In vivo PI3K degradation in human HCC1954 cells xenografted in mouse at 50 mg/kg, po; assay type: functional, organism-based
[14] = Dissociation constant, pKa of the compound; assay type: physicochemical
Cytochrome P450 1A2 = target: T2, Cytochrome P450 1A2 (Homo sapiens, UniProt P05177); assay: Inhibition of CYP1A2 (unknown origin); assay type: ADME
T2 sequence (P05177 whole entry): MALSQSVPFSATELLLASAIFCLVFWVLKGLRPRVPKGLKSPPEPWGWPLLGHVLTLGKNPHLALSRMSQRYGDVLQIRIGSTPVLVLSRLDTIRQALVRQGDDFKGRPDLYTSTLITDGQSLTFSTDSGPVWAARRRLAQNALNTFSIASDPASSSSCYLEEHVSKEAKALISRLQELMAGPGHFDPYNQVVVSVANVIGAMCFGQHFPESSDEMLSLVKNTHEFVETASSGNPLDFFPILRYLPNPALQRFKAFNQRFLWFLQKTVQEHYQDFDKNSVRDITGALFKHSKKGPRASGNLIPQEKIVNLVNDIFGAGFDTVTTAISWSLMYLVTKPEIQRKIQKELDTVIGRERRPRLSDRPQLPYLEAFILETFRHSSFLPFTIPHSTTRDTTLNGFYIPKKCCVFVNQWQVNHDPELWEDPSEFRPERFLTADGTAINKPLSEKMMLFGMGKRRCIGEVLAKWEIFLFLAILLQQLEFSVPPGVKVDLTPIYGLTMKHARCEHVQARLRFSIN

[15] = Oral bioavailability in Sprague-Dawley rat plasma at 5 mg/kg measured upto 8 hrs by LC-MS/MS method; assay type: ADME, organism-based
[16] = Antiproliferative activity against human KPL-4 cells assessed as reduction in cell viability incubated for 4 days by Celltiter-Glo luminescence assay; assay type: functional, cell-based; conditions: KPL4, 96 h
[17] = Plasma protein binding in rat assessed as unbound fraction at 5 uM incubated for 4 hrs by equllibrium dialysis method; assay type: ADME, cell-free
MCF7 = assay: Antiproliferative activity against human MCF7 cells assessed as reduction in cell viability incubated for 4 days by Celltiter-Glo luminescence assay; assay type: functional, cell-based; conditions: MCF7, 96 h
CaV1.2 = CaV1.2 (Homo sapiens, UniProt Q13936); assay: Inhibition of human CaV1.2 at 10 uM relative to control
[18] = AUC in NCR nude mouse at 50 mg/kg, po measured upto 8 hrs by LC-MS/MS analysis; assay type: ADME, organism-based; set-up: dose 50 mg/kg, time < 8 hrs, route po; conditions: in vivo
HCC1954 [19] = assay: Antitumor activity against human HCC1954 cells xenografted in mouse assessed as increase in cleaved PARP level at 50 mg/kg, po; assay type: functional, organism-based
[20] = Plasma protein binding in mouse assessed as unbound fraction at 5 uM incubated for 4 hrs by equllibrium dialysis method; assay type: ADME, cell-free
[21] = Clearance in SCID-Beige mouse plasma at 1 mg/kg, iv measured upto 24 hrs by LC-MS/MS analysis; assay type: ADME, organism-based

CaV1.2, sequence (Q13936 whole entry): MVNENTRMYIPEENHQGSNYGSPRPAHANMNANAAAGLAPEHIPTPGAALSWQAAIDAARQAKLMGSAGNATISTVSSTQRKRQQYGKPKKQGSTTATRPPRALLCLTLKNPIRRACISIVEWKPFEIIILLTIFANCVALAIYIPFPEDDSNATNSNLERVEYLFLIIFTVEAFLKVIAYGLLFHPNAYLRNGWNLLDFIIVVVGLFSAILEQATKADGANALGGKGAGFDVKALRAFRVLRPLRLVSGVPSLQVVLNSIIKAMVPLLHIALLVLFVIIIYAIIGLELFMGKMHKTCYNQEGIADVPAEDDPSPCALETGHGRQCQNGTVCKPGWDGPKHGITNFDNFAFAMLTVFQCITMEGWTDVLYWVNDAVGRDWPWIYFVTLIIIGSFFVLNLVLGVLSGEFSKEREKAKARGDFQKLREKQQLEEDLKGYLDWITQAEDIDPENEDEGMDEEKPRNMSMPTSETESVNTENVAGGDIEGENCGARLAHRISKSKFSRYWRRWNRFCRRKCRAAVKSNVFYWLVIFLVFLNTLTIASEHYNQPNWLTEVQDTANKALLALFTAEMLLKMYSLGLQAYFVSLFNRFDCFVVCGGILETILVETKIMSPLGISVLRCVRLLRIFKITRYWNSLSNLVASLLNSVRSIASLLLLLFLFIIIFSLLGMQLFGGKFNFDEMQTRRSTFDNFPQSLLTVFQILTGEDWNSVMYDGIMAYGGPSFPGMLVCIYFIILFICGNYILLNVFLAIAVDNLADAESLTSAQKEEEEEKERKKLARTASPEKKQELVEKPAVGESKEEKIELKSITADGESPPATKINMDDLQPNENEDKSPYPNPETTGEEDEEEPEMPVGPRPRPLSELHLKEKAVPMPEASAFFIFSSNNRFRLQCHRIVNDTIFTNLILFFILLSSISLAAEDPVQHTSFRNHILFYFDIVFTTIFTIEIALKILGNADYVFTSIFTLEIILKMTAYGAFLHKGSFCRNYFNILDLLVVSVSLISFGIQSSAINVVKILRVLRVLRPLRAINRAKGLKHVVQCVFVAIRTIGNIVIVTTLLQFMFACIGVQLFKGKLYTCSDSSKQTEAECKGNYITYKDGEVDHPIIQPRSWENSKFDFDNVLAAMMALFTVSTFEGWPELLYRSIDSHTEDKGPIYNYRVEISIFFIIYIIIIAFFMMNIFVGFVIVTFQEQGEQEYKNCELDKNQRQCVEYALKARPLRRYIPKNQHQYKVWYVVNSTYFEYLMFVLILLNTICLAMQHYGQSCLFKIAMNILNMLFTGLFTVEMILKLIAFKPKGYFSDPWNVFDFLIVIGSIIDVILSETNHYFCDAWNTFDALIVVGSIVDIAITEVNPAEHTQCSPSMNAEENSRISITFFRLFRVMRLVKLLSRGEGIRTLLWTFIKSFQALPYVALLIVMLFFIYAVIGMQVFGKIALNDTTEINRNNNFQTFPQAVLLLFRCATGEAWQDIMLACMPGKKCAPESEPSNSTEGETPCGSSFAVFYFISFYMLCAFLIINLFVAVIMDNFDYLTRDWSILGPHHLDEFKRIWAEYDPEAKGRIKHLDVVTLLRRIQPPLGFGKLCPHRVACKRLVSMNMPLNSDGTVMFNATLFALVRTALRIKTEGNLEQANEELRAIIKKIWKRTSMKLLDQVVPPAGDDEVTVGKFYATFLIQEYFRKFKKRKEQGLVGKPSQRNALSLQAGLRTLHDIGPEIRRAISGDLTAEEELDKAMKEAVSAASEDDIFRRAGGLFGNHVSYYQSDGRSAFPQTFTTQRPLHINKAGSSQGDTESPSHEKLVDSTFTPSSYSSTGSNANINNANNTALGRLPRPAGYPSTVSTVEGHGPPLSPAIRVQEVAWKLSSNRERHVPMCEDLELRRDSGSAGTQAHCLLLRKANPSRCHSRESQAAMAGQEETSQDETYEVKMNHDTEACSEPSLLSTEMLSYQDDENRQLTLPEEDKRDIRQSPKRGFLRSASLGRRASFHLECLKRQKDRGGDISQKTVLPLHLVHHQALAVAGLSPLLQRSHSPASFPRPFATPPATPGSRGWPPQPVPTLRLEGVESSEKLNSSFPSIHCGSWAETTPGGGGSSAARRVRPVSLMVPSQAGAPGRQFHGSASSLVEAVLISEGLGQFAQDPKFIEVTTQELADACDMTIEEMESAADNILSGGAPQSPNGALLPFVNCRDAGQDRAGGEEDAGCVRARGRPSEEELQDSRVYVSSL
Phosphatidylinositol 4,5-bisphosphate 3-kinase catalytic subunit alpha isoform (Homo sapiens), P42336 [H1047R], sequence (P42336 whole entry H1047R, canonical isoform): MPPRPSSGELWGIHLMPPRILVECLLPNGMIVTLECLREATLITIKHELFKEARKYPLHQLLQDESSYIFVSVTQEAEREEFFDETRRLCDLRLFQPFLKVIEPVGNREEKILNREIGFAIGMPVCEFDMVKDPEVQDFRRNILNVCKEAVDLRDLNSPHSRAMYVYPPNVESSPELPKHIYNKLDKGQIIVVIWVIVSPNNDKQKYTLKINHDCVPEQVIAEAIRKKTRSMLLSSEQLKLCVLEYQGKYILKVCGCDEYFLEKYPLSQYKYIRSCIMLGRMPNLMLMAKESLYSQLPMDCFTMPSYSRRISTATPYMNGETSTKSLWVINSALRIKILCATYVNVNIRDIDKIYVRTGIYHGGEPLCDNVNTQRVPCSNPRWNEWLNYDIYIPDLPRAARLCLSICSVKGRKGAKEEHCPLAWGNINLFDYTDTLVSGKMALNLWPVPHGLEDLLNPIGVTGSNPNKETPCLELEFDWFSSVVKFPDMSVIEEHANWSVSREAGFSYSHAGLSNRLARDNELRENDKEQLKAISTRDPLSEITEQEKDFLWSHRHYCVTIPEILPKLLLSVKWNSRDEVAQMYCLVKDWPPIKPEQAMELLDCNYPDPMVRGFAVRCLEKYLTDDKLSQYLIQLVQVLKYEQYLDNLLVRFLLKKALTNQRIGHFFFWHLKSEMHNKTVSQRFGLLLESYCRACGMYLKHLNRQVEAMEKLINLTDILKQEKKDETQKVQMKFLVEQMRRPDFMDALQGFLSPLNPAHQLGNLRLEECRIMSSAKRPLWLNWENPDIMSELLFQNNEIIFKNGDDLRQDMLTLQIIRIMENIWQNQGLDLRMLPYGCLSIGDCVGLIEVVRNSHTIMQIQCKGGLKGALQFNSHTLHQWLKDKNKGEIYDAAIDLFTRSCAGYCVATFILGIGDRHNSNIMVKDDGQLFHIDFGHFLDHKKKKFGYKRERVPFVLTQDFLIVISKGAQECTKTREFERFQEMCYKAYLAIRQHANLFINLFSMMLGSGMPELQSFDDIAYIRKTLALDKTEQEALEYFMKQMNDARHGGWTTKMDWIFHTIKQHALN
Cytochrome P450 2C19, sequence (P33261 whole entry, canonical isoform): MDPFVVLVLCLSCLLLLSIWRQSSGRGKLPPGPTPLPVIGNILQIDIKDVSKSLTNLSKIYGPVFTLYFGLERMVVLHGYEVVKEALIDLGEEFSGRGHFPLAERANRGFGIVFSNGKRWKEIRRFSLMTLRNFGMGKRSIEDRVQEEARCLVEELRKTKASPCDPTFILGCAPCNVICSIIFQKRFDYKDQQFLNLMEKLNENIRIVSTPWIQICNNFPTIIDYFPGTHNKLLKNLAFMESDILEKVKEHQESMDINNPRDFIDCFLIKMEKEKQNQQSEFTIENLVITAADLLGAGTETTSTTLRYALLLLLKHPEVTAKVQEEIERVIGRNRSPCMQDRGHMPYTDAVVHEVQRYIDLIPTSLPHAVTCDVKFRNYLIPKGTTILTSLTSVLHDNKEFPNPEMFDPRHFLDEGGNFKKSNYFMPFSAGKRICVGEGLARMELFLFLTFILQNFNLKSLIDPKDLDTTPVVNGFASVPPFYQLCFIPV

AUC at 8 h [1]: 2.5 µM·h | logD [4]: 0.8 | IC50 (Cytochrome P450 2C19): > 10000 nM | Activity [5]: Active | clearance [7]: 86 mL/min/kg | fraction unbound at 4 h, 5 µM [8]: 0.589 | bioavailability [9]: 45% | IC50 [11]: 56 nM | solubility thermodynamic [12]: 615 µg/mL (≈ 1510 µM) | IC50 (Cytochrome P450 2C8): > 10000 nM | pKa [14]: 3.3 | IC50 (Cytochrome P450 1A2): > 10000 nM | bioavailability [15]: 58% | fraction unbound at 4 h, 5 µM [17]: 0.608 | EC50 (MCF7): 30 nM | AUC at 8 h [18]: 32.9 µM·h | fraction unbound at 4 h, 5 µM [20]: 0.261 | clearance [21]: 37 mL/min/kg
Compound: C[C@H](Nc1ccc2c(c1)OCCn1cc(N3C(=O)OC[C@H]3C(F)F)nc1-2)C(N)=O [INAVOLISIB]
inhibition (Mus musculus [2]): Dde | inhibition (Mus musculus [3]): Tde | inhibition in vivo at 50 mg/kg (HCC1954 [6]): 149% | inhibition in vivo at 25 mg/kg (HCC1954 [10]): 140% | inhibition (Mus musculus [13]): Active | EC50 [16]: 10 nM | inhibition at 10 µM (CaV1.2): < 20% | Activity (HCC1954 [19]): Active
